Experimental data taken from patent US11679106B2, “Bromodomain inhibitor” (CELGENE QUANTICEL RESEARCH, INC., priority 2015, dated 2023).
Converted amounts (≈) assume the structure as drawn.

What was measured:
[1] = Aqueous solubility, kinetic shake flask method; format: physicochemical; conditions: aqueous buffer, kinetic from dmso stock, pH=7.4 in 50 mM phosphate buffer
[2] = PK study of dose proportionality in rat after oral crystalline Form A; format: in vivo, female Sprague Dawley rats; conditions: oral 10, 30, 100 or 300 mg/kg, suspension in 1% Tween, 40% PEG400, 59% of 0.5% HPMC
Source text: A summary of this study is illustrated in FIG. 5.

[3] = PK study of dose proportionality in rat after oral SDD; format: in vivo, female Sprague Dawley rats; conditions: 25% Compound 1:HPMC SDD, oral 0.5% MC suspension, 10 mg/kg to 300 mg/kg
Method: (§1) The spray-dried dispersion was prepared by mixing a solution of Compound 1 in dichloromethane with hydroxypropyl methylcellulose (Methocel E5 LV) (HPMC) in a 1:3 Compound 1:polymer ratio, stirring the mixture overnight, and then spray-drying using a lab scale Buchi spray dryer.

[4] = system: HL-60, human proleukemia cells; experiment: Cell-MTS cellular proliferation assay, HL-60; format: cell-based; conditions: 168 hr incubation
Method: (§2) A colorimetric cellular proliferation assay (Cell-MTS assay) was performed to assess the ability of the heterocyclic derivative BRD4 inhibitors disclosed herein to effect the proliferation of established cancer cell lines.
(§3) Assay Principle: The Cell-MTS assay is a 7-day plate-based colorimetric assay that quantifies the amount of newly generated NADH in the presence or absence of test compound. The NADH level is used for the quantification of cancer cell proliferation.
(§4) Assay Method: Established cancer cell lines with a variety of driving mutations were obtained from American Type Culture Collection (ATCC) and routinely passaged according to ATCC protocols. For routine assay, these cells were seeded at densities that enabled ˜90% confluence after 7 days of culture. Raji, human Burkitts lymphoma cells, (cMYC) were seeded at 15,000 cells per 96-well. HL-60, human proleukemia cells, (NRAS, p16, p53, c-Myc amplified) were seeded at 5,000 cells per 96-well. NCI-H460, human non-small cell lung cancer cells, (KRAS, PIK3CA, STLK11, p16) were seeded at 3,000 cells per 96-well. Plated cells were incubated for 24 hr, and thereafter cells received an 11-point dilution of Compound 1 with final concentration ranges from 100 μM to 2.0 nM. […] IC50 values were calculated using the IDBS XLfit software package and include background subtracted OD490 values and normalization to DMSO controls. […]

BRD4(BD1) = target: T1, BRD4(BD1) (Homo sapiens, UniProt O60885); experiment: In vitro enzyme inhibition assay (AlphaScreen, BRD4 / H4-tetraacetyl peptide); format: binding; conditions: BRD4(BD1) 2 nM, peptide 15 nM
T1 construct: In a 384-well ProxiPlate BRD4(BD1) (2 nM final) was combined with peptide; made in house
Method: His-tagged BRD4 was cloned, expressed, and purified to homogeneity. […] BRD4 binding and inhibition was assessed by monitoring the interaction of biotinylated H4-tetraacetyl peptide (AnaSpec, H4K5/8/12/16(Ac), biotin-labeled) with the target using the AlphaScreen technology ([…]). […] After 20 min incubation at RT, Alpha streptavidin donor beads and Nickel Chelate acceptor beads were added to a final concentration of 5 μg/mL.

[5] = PK study of plasma exposure in mouse 6 hours after oral SDD preparations; format: in vivo, female CD-1 mice; conditions: female, CD-1, mouse
Method: Spray-dried dispersions (SDD) were prepared by mixing a solution of Compound 1 in dichloromethane with either polyvinylpyrrolidone (PVP K12 PF) or hydroxypropyl methylcellulose (Methocel E5 LV) in ratios of Compound 1:polymer of either 1:1 or 1:3, resulting in four unique combinations, followed by spray-drying each preparation using a lab scale Buchi spray dryer (Buchi B290 parameters: inlet T° 80° C.; outlet T° 57° C.; aspirator 100%; nozzle air 30 mm; pump speed 25%; setup: open loop).
In order to determine the plasma exposure levels of the four SDDs prepared as described above, each of preparation was administered orally to female CD-1 mice as a suspension in 0.5% MC. FIG. 6 illustrates the results of this experiment.

[6] = PK study of plasma exposure in rat after oral HPMCAS SDD preparations; format: in vivo, female Sprague Dawley rats; conditions: female, Sprague Dawley, 10 mg/kg
Method: Spray-dried dispersions (SDD) were prepared by mixing a solution of Compound 1 in (90:10) acetone:water with hydroxypropylmethylcellulose acetate succinate M or H (HPMCAS-M or HPMCAS-H) in ratios of Compound 1:polymer of either 1:9 or 1:3, followed by spray-drying each preparation using a custom bench scale Lab Spray Dryer (BLD-35; process parameters: inlet T° 93-109° C.; outlet T° 42-43° C.; atomizing pressure 110 psi; feed rate 29 g/min; […] 450 g/min).
In order to determine the plasma exposure levels of the three SDDs prepared as described above, each of them was administered orally at 10 mg/kg (based on Compound 1) to female Sprague Dawley rats as a suspension in 0.5% MC for the 10% HPMCAS-M SDD or as a suspension in 0.5% Methocel A4M/0.5% HPMCAS-HF/20 mM Tris, pH 7.4 for the 25% HPMCAS-M and the 25% HPMCAS-H SDDs. FIG. 9 illustrates the results of this experiment.

[7] = system: NCI-H460, human non-small cell lung cancer cells; experiment: Cell-MTS cellular proliferation assay, NCI-H460; format: cell-based; conditions: 168 hr incubation
Method: as §2, §3, §4

[8] = PK study of dose proportionality in dog after oral SDD; format: in vivo, male beagle dogs; conditions: 25% Compound 1:HPMC SDD, oral 0.5% MC suspension, 1 mg/kg-10 mg/kg
Method: as §1

[9] = system: Raji, human Burkitts lymphoma cells; experiment: Cell-MTS cellular proliferation assay, Raji; format: cell-based; conditions: 168 hr incubation
Method: as §2, §3, §4

| solubility [1] [µg/mL] | exposure levels (AUC 0-24 hr) versus dose [2] | dose proportionality (AUC 0-24 hr) [3] | IC50 [4] [nM] | IC50 (BRD4(BD1)) [nM] | AUC(0-t) ([5]; SDD with HPMC polymer, Compound 1:polymer 1:1, suspension in 0.5% MC) [ng·h/mL] | AUC(0-t) ([5]; SDD with HPMC polymer, Compound 1:polymer 1:3, suspension in 0.5% MC) [ng·h/mL] | AUC(0-t) ([5]; SDD with PVP polymer, Compound 1:polymer 1:1, suspension in 0.5% MC) [ng·h/mL] | AUC(0-t) ([5]; SDD with PVP polymer, Compound 1:polymer 1:3, suspension in 0.5% MC) [ng·h/mL] | AUC(0-t) ([6]; SDD with HPMCAS-M polymer, Compound 1:polymer 1:9, suspension in 0.5% MC, read-out: mean AUC 0-24 hr) [ng·h/mL] | AUC(0-t) ([6]; pH 7.4, SDD with HPMCAS-H polymer, Compound 1:polymer 1:3, suspension in 0.5% Methocel A4M/0.5% HPMCAS-HF/20 mM Tris, pH 7.4, read-out: mean AUC 0-24 hr) [ng·h/mL] | AUC(0-t) ([6]; pH 7.4, SDD with HPMCAS-M polymer, Compound 1:polymer 1:3, suspension in 0.5% Methocel A4M/0.5% HPMCAS-HF/20 mM Tris, pH 7.4, read-out: mean AUC 0-24 hr) [ng·h/mL] | IC50 [7] [nM] | dose proportionality (AUC 0-24 hr) [8] | IC50 [9] [nM] | SMILES |
| --- | --- | --- | --- | --- | --- | --- | --- | --- | --- | --- | --- | --- | --- | --- | --- |
| 2.6 to 3.7 (≈ 6.78 to 9.65 µM) | non-linear exposure levels |  |  |  |  |  |  |  |  |  |  |  |  |  | Cn1cc(-c2cc(S(C)(=O)=O)ccc2OCC2CC2)c2ccccc2c1=O [Compound 1 Form A, 4-[2-(cyclopropylmethoxy)-5-methylsulfonylphenyl]-2-methylisoquinolin-1-one] |
|  |  | approximate dose proportionality | ≤ 500 | < 500 | 10500 | 24400 | 7190 | 8870 | 28100 | 27500 | 24600 | > 5000 | Approximate dose proportionality | ≤ 500 | Cn1cc(-c2cc(S(C)(=O)=O)ccc2OCC2CC2)c2ccccc2c1=O [Compound 1, 4-[2-(cyclopropylmethoxy)-5-methylsulfonylphenyl]-2-methylisoquinolin-1-one] |
